Key:
CYP3A4 [1] = target: T1, CYP3A4 (Homo sapiens, UniProt P08684); assay: microsomal CYP3A4 activity assay (human hepatic microsomes); type: in vitro ADME; parameters: human hepatic microsomes (Gibco, Biocenter, Szeged, Hungary); tissue Gibco (Biocenter, Szeged, Hungary); host or cells: human liver microsomes; settings: for microsomal CYP3A4 function: 25, 50 and 100 µM; for inhibition at 100 µM: human, read-out: CYP3A4 inhibitory activities
Protocol: To investigate the effects of inhibitor MI-2415 on CYP3A4 activities, a P450-Glo CYP450 assay (Promega, Madison, WI, USA) was used. […] This luminescent method involves adding a cell-permeable Luciferin-IPA at 3 µM, which was used in 300 µL phenol-red free Williams’ Medium E in each well in the CYP3A4 assay with an incubation time of 1 h. The luminescence activity of the product in the presence of the luciferin detection reagent was proportional to the CYP activity. For the microsomal CYP3A4 assay of inhibitors MI-1851 and MI-2415 at 25, 50, and 100 µM (n = 3), BioVision CYP assays (BioVision, Inc., Kampenhout, Belgium) were used according to the manufacturer’s instructions. The protein content of human hepatic microsomes (Gibco, Biocenter, Szeged, Hungary) was determined by the bicinchoninic acid protein assay kit (Pierce BCA kit, Thermo Fisher Scientific, Waltham, MA, USA) and a 100 µg/well protein was used in each study. […] A Victor X2 2030 fluorescence spectrometer (Perkin Elmer, Waltham, MA, USA) was used to detect the fluorescence intensities of the microsomal CYP3A4 function at wavelengths of λex/em = 535/587 nm and it was also applied to detect the luminescence signals of the cell-based CYP3A4 activity assay.

furin = settings: read-out: Ki for furin; cited from earlier work
IPEC-J2 cells = assay: Amplex Red extracellular H2O2 assay in IPEC-J2 cells; type: cell-based, porcine; settings: 50 or 100 μM, 24 h
Protocol: The cell line used for the experiments was the IPEC-J2 from the jejunum of porcine. The IPEC-J2 epithelial cell line was a kind gift from Dr. Jody Gookin (Department of Clinical Sciences, College of Veterinary Medicine, North Carolina State University, Raleigh, NC, USA). The cell monolayers were maintained in 75 cm^2 cell culture flasks with filtered caps (Orange Scientific, Braine-l’Alleud, Belgium) at 37 °C in a humidified atmosphere containing 5% CO2. The culture medium contained 50% Dulbecco’s modified Eagle’s medium (DMEM) and 50% Ham’s F12 Nutrient Mixture (Merck, Darmstadt, Germany) supplemented with 1.5 mmol/L HEPES, 5% fetal bovine serum (FBS) (Biocenter, Budapest, Hungary), 1% insulin/transferrin/sodium selenite medium supplement, 5 ng/mL epidermal growth factor (EGF), and 1% penicillin/streptomycin (all purchased from Invitrogen, Thermo Fisher Scientific, Waltham, MA, USA). Cells were used between passages 40 and 55. The media were changed every second day. Cells were seeded onto 96- and 24-well polystyrene cell culture plates for the cell viability and the Amplex Red/DCFH-DA assay, respectively. […]

CYP3A4 [2] = target: T1, CYP3A4; parameters: method as in PMID 35594709; settings: PHH, previous studies; cited from earlier work
[3] = tested on: α1-acid glycoprotein (AGP); assay: fluorescence quenching of α1-acid glycoprotein; type: binding; settings: AGP 2 μM, ligand 0.25-2.5 μM, PBS pH 7.4, λex 285 nm
Protocol: Human serum albumin (HSA) (product code: A1653) and α1-acid glycoprotein (AGP) (product code: G9885) were purchased from Merck (Darmstadt, Germany) and used as received. Fluorescence emission spectra were recorded using a Hitachi F-4500 fluorometer (Tokyo, Japan), while absorption spectra were collected by employing a Hitachi U-3900 UV–Vis spectrophotometer (Tokyo, Japan). Before the evaluation of fluorescence data, the inner-filter effects of MI-1851 and MI-2415 were corrected based on the following equation [23, 24]:(1) Icor=Iobs×e^(Aex+Aem)/2 where Icor and Iobs are the corrected and observed emission intensities, respectively; and Aex and Aem are the absorbance of the MI compounds tested at the excitation and emission wavelengths used, respectively.
To examine the potential interaction of inhibitor MI-2415 with HSA, increasing levels of the ligand (final concentrations: 0, 1, 2, 3, 4, 7, and 10 μM) were added to a standard amount of the protein (2 μM) in PBS (pH 7.4), and then the emission spectra were recorded (λex = 295 nm, λem = 340 nm). Furthermore, the quenching effects of inhibitors MI-1851 and MI-2415 (both 0, 0.25, 0.5, 1, 1.5, 2, and 2.5 μM) were also tested on the emission signal of AGP (2 μM) in PBS (λex = 285 nm, λem = 337 nm).

T1 sequence (P08684 whole entry): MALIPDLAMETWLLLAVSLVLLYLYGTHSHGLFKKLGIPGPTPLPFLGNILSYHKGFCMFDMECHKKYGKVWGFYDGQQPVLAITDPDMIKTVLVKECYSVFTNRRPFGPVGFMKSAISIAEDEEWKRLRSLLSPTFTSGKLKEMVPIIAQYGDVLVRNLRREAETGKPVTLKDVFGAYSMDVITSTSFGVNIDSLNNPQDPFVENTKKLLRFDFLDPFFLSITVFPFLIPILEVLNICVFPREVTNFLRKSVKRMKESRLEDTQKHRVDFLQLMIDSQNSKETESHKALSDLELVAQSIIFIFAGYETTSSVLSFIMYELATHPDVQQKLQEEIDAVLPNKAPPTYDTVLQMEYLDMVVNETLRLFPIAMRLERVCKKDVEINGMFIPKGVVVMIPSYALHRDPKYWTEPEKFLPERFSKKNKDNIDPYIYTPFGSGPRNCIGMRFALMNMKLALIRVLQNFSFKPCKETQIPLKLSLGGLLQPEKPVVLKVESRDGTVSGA

| Compound | microsomal CYP3A4 function (CYP3A4 [1]) | inhibition at 100 µM (CYP3A4 [1]) [%] | Ki (furin) [pM] | extracellular H2O2 production (redox balance) in IPEC-J2 cells (IPEC-J2 cells) | concentration at which significant inhibition of CYP3A4 was already observed (CYP3A4 [2]) [µM] | effect on fluorescence signal of AGP at 337 nm [3] | concentration from which CYP3A4 inhibition is significant (CYP3A4 [1]) [µM] |
| --- | --- | --- | --- | --- | --- | --- | --- |
| CC(C)(C)[C@H](NC(=O)[C@H](CCONC(=N)N)NC(=O)Cc1ccc(CNC(=N)N)cc1)C(=O)N[C@@H](CCONC(=N)N)C(=O)NCc1ccc(C(=N)N)cc1 [MI-1851] | suppressed CYP3A4 function in a concentration-dependent manner | 30 to 50 | 10.1 | slightly, but statistically not significantly | 20 | did not induce relevant changes in the fluorescence signal of AGP |  |
| CC(C)(C)[C@H](NC(=O)[C@H](CCONC(=N)N)NC(=O)Cc1ccc(CNC(=N)N)cc1)C(=O)N[C@@H](CCONC(=N)N)C(=O)NCc1ccc2c(c1)CN=C2N [MI-2415] | reduce CYP3A4 activity but only from 50 µM | 30 to 50 | 7.1 | slightly, but statistically not significantly |  | did not induce relevant changes in the fluorescence signal of AGP | 50 |
